Consider 14 compounds from patent publication US11479551B2, “MTA-cooperative PRMT5 inhibitors” (Mirati Therapeutics, Inc., priority 2019, dated 2022).

Read-outs that look alike come from different tables or passages of the source.

This experiment has as its target PRMT5/MEP50 complex (Homo sapiens (Human), UniProt O14744). Briefly: PRMT5:MEP50 FlashPlate Assay (histone H4 peptide substrate, plus and minus MTA). The experiment is classed as biochemical. On the procedure:
The PRMT5 inhibitory activity of compounds of the present invention was determined using either a PRMT5:MEP50 FlashPlate Assay (Reaction Biology Corporation) or a PRMT5:MEP50 HotSpot Assay (Reaction Biology Corporation).
1. PRMT5:MEP50 FlashPlate Assay

Where [1] appears, read: IC50 + 2 μM MTA (nM), in the presence of 2 μM MTA.
[2] abbreviates: in the absence of MTA, read-out: IC50.

Sequence of PRMT5/MEP50 complex (O14744 2-637): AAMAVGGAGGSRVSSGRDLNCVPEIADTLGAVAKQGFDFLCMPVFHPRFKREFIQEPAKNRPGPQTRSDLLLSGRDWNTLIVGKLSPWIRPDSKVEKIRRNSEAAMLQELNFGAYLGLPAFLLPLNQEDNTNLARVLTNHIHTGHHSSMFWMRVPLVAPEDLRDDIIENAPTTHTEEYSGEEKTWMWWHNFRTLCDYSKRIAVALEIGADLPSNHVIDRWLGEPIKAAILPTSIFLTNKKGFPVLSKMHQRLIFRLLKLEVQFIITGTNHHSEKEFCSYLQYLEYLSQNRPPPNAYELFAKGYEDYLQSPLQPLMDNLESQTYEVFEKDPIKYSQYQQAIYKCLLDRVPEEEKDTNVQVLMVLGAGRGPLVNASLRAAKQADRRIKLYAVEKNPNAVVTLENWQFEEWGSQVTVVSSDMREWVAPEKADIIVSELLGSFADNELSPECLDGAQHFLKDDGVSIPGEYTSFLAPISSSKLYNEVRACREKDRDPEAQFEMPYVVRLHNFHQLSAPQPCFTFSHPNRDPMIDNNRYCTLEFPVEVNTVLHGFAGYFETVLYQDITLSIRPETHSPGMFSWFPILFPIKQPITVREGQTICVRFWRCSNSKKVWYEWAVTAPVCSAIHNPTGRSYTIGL
Sequence of PRMT5/MEP50 complex (Q9BQA1 2-342 partner): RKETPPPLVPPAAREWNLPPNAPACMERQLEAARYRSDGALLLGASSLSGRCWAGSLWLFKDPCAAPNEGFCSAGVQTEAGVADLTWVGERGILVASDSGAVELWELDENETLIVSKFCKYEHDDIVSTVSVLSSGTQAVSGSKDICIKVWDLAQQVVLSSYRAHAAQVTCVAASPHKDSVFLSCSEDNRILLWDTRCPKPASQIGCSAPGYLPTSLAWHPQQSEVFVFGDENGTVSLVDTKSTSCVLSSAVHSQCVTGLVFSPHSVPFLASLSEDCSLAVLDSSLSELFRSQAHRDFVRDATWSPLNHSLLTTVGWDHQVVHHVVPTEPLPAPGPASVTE

Turning to `NCc1n[nH]c(=O)c2ccc(-c3cnn4c3CN(C(=O)C3CCCC3)CC4)cc12` [Example 4-87, 4-(aminomethyl)-6-(5-(cyclopentanecarbonyl)-4,5,6,7-tetrahydropyrazolo[1,5-a]pyrazin-3-yl)phthalazin-1(2H)-one], the IC50 stood at 22 nM under setting [1] and 1590 nM under setting [2].

In the case of `N#Cc1cccc(Oc2cncc(-c3ccc4c(=O)[nH]nc(CN)c4c3)c2)c1` [Example 4-69, 3-((5-(4-(aminomethyl)-1-oxo-1,2-dihydrophthalazin-6-yl)pyridin-3-yl)oxy)benzonitrile], the IC50 runs as follows: under setting [1], 10 nM; under setting [2], 624 nM. Consider `Cc1ncc(-c2ccc3c(=O)[nH]nc(CN)c3c2)n1CC#N` [Example 4-109, 2-(5-(4-(aminomethyl)-1-oxo-1,2-dihydrophthalazin-6-yl)-2-methyl-1H-imidazol-1-yl)acetonitrile], for which the IC50 is, setting by setting: under setting [1], 120 nM; under setting [2], 4870 nM.

Consider `NCc1n[nH]c(=O)c2ccc(-c3nncn3Cc3ccccc3)cc12` [Example 3-57, 4-(aminomethyl)-6-(4-benzyl-4H-1,2,4-triazol-3-yl)phthalazin-1(2H)-one], for which the IC50 under setting [1] is 30000 nM. With `Cc1ccc(Oc2cncc(-c3ccc4c(=O)[nH]nc(CN)c4c3)c2)cc1` [Example 7-5, 4-(aminomethyl)-6-(5-(p-tolyloxy)pyridin-3-yl)phthalazin-1(2H)-one], the half-inhibitory concentration (IC50) under setting [1] was 2 nM and the IC50 under setting [2] was 64 nM. In the same order, the values of `NCc1n[nH]c(=O)c2ccc(-c3cncs3)cc12` [Example 3-1, 4-(aminomethyl)-6-(thiazol-5-yl)phthalazin-1(2H)-one] are 3700 nM and 89600 nM.

On to `NCc1n[nH]c(=O)c2ccc(-c3cncc(C(F)F)c3)cc12` [Example 3-36, 4-(aminomethyl)-6-(5-(difluoromethyl)pyridin-3-yl)phthalazin-1(2H)-one], for which the IC50 is, setting by setting: under setting [1], 450 nM; under setting [2], 9130 nM. `NCc1n[nH]c(=O)c2ccc(-c3cncc(Sc4ccccc4Cl)c3)cc12` [Example 4-58, 4-(aminomethyl)-6-(5-((2-chlorophenyl)thio)pyridin-3-yl)phthalazin-1(2H)-one]: the IC50 stood at 1.8 nM under setting [1] and 36 nM under setting [2]. On to `Cc1nc2cncc(-c3ccc4c(=O)[nH]nc(CN)c4c3)c2o1` [Example 4-110, 4-(aminomethyl)-6-(2-methyloxazolo[4,5-c]pyridin-7-yl)phthalazin-1(2H)-one], for which the IC50 under setting [1] came to 1000 nM. In the case of `COCc1c[nH]c2ncc(-c3ccc4c(=O)[nH]nc(CN)c4c3)cc12` [Example 4-46, 4-(aminomethyl)-6-(3-(methoxymethyl)-1H-pyrrolo[2,3-b]pyridin-5-yl)phthalazin-1(2H)-one], the IC50 under setting [1] was found to be 0.6 nM and the IC50 under setting [2] stood at 329 nM. For `Cc1c(Cl)cccc1Oc1cncc(-c2ccc3c(=O)[nH]nc(CN)c3c2)c1` [Example 4-75, 4-(aminomethyl)-6-(5-(3-chloro-2-methylphenoxy)pyridin-3-yl)phthalazin-1(2H)-one] the same measures were 0.7 nM and 33 nM.

For the compound `NCc1n[nH]c(=O)c2ccc(-c3cnc4ccc(OC5CC5)cn34)cc12` [Example 4-37, 4-(aminomethyl)-6-(6-cyclopropoxyimidazo[1,2-a]pyridin-3-yl)phthalazin-1(2H)-one], the half-inhibitory concentration (IC50) is, setting by setting: under setting [1], 1.1 nM; under setting [2], 213 nM. Consider `NCc1n[nH]c(=O)c2ccc(-c3cnn4c3CN(C(=O)C3CCCCC3)CC4)cc12` [Example 4-88, 4-(aminomethyl)-6-(5-(cyclohexanecarbonyl)-4,5,6,7-tetrahydropyrazolo[1,5-a]pyrazin-3-yl)phthalazin-1(2H)-one], for which the half-inhibitory concentration (IC50) by setting is: under setting [1], 45 nM; under setting [2], 1710 nM. Take `NCc1n[nH]c(=O)c2ccc(-c3cnn(CCO)c3)cc12` [Example 3-32, 4-(aminomethyl)-6-(1-(2-hydroxyethyl)-1H-pyrazol-4-yl)phthalazin-1(2H)-one]: the half-inhibitory concentration (IC50) runs as follows: under setting [2], 11600 nM; (read-out: IC50 + 2 μM MTA, in the presence of 2 μM MTA) 710 nM.

For orientation: IC50 means the concentration that gives 50% inhibition.
